Assays:
Format in all cases: physicochemical
Conditions in all cases: buffer
[1] = Chemical stability assessed as half life at pH 4 at 40 degC
[2] = Chemical stability assessed as half life at pH 4 at 25 degC
[3] = Chemical stability assessed as half life at pH 7 at 40 degC

Row | SMILES | half-life [1] [min] | half-life [2] [min] | also measured
1 | CC(C)C(CS(=O)(=O)[O-])(C(C)C)N(Cl)Cl.[Na+] |  | < 10 | 
2 | CC1(C)CC(C)(C)CC(CS(=O)(=O)[O-])(N(Cl)Cl)C1.[Na+] | 1440 |  | 
3 | COCC(C)(CS(=O)(=O)[O-])N(Cl)Cl.[Na+] (centres undefined) |  | 2160 | 
4 | CCC(CC)(CS(=O)(=O)[O-])N(Cl)Cl.[Na+] | 1440 |  | half-life [3]: 720 min
5 | CC(C)(CS(=O)(=O)[O-])N(Cl)Cl.[Na+] |  |  | t1/2 [1]: > 2 yr
6 | CCCC(CCC)(CS(=O)(=O)[O-])N(Cl)Cl.[Na+] | 720 |  | half-life [3]: 2880 min

Continued, in another order:

Row | half-life [1] [min] | half-life [2] [min] | SMILES | also measured
7 | 10100 |  | O=S(=O)([O-])CCCCCCN(Cl)Cl.[Na+] | 
8 | 7200 |  | O=S(=O)([O-])CCCCCN(Cl)Cl.[Na+] | half-life [3]: 1440 min
9 | 2880 |  | O=S(=O)([O-])CCCCCCCN(Cl)Cl.[Na+] | 
10 |  | < 1440 | O=S(=O)([O-])CCOCCN(Cl)Cl.[Na+] | 
11 |  | 360 | O=S(=O)([O-])CCCCN(Cl)Cl.[Na+] | 
